Measurements from patent US20240102100A1, “RIBOSOMAL RNAS 2'O-M[…] A NOVEL SOURCE OF […] FOR DIAGNOSIS, PROGNOSIS AND THERAPY OF CANCERS” (CENTRE LEON BERARD, priority 2020, published 2024).

How the values were obtained:
[1] = tested on: hMEC-ZEB1 mesenchymal cells; assay: Cell viability monitored in real time (Incucyte), cell confluence as read-out, with increasing concentration of anisomycin; type: cell-based, human
From the text: (§1) Cell lines and cell viability. The epithelial and mesenchymal cellular models were kindly provided by Alain Puisieux's team (17). Briefly, the human epithelial mammary cell (hMECs) were used to derive EMT-related cellular models. The hMEC cell line corresponds to epithelial cells (Lonza) that were immortalized by lentiviral transduction allowing hTERT overexpression. The hMEC cell line was then transduced with lentiviral vector to induce stable over-expression of the murine EMT-TF ZEB1 and to promote EMT and thus generates the hMEC-ZEB1 mesenchymal cell line. The hMEC cellular models were maintained in DM EM-F12 (Gibo) supplemented with 0.5 μg/ml hydrocortisone, 10 ng/ml EGF, […] insulin, 10% fetal calf serum, 100 μg/ml streptomycin and 100 units/ml of penicillin. Selective pressure was maintained with puromycin for hMEC-ZEB1. Cell viability was monitored in real-time using Incucyte Live-Cell analysis system (Statorius). Cells were plated in 96-well plates without selective pressure for 24 hrs before addition of the anisomycin antibiotic (range concentration 2-200 nM). DMSO was used as negative control.
(§2) At day 6, difference in cell viability was determined using cell confluence as a read-out.

[2] = tested on: hMEC epithelial cells; assay: as above; type: cell-based, human; details: real-time monitoring
From the text: as §1, §2

## COc1ccc(C[C@H]2NC[C@H](O)[C@H]2OC(C)=O)cc1 [anisomycin]
[1]; hMEC-ZEB1 mesenchymal cells compared with hMEC epithelial cells, anisomycin 2-200 nM, day 6
  sensitivity to anisomycin treatment (cell viability, cell confluence as read-out): more sensitive
[1]; mesenchymal cells, increasing concentration of anisomycin, real-time monitoring
  change in cell morphology: no change in cell morphology was observed
[2]
  change in cell morphology: no change in cell morphology was observed
